Test results taken from patent US10760110B2, “Antibiotic testing and screening system” (priority 2017, dated 2020).
Values after ≈ are worked out from the molar mass of the structure shown. Read-outs that look alike come from different tables or passages of the source.

Legend:
Conditions in all cases: Klebsiella pneumoniae
[1] = test system: K. pneumoniae NVT1001 ΔramRΔompK35/36 mutant and its revertants; experiment: Etest MIC, ΔramRΔompK35/36 mutant and its revertants (Table 7); format: cell-based
[2] = test system: K. pneumoniae NVT1001 and its ΔompK35/36 and/or ΔramR mutants; experiment: Etest MIC, OmpK35/36 loss and AcrAB-TolC overexpression (ΔramR) strains (Table 6); format: cell-based, Klebsiella pneumoniae
How it was run: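 Etest MICs against K. pneumoniae NVT1001 and its ΔompK35/36 and/or ΔramR mutants, rounded up to the next two-fold value. For NVT1001 carrying pACYC177-blaOXA-48, ceftazidime and cefotaxime MICs by CLSI broth microdilution, interpreted with CLSI 2017 breakpoints.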

[3] = test system: K. pneumoniae NVT1001 strains with carbapenemase plasmids; experiment: Etest MIC of β-lactams, OmpK35/36 loss, ΔramR and/or carbapenemase (Table 9); format: cell-based, Klebsiella pneumoniae
Description: DNA fragments of the resistance genes along with their flanking regions were amplified from clinical plasmids via PCR with specific primer pairs. The resulting PCR fragments were digested and then cloned into the plasmid pACYC177 or pACYC184. The resulting plasmids were then transformed into K. pneumoniae strain NVT1001 via electroporation. The recombinant bacteria were plated onto LB agar plates containing kanamycin (50 mg/L) or chloramphenicol (50 mg/L), and the presence of the cloned gene was confirmed via PCR and DNA sequencing.
The MICs of antibiotics were determined using the Etest (Biodisk AB, Sweden) according to the manufacturer's instructions. The MICs from the Etest, which fall between standard two-fold dilutions, were rounded up to the next highest two-fold value. The MICs of ceftazidime and cefotaxime against K. pneumoniae NVT1001 harbouring the pACYC177 plasmid with blaOXA-48 were further determined using a broth microdilution test according to the recommendations of the CLSI,^25 and the results were interpreted according to the breakpoints established by the CLSI in 2017.^25 Meanwhile, due to the lack of CLSI breakpoints in 2016 and 2017, the results for cephalothin were interpreted according to the breakpoints established by the CLSI in 2015,^26 and the results for moxifloxacin were interpreted according to the breakpoints established by the EUCAST in 2017.^27

## C[C@@H](O)[C@H]1C(=O)N2C(C(=O)O)=C(S[C@@H]3CN[C@H](C(=O)N(C)C)C3)[C@H](C)[C@H]12 [Meropenem]
[1]; ΔramRΔompK35/36::ompK35/36 revertant
  MIC: 0.06 µg/mL
[1]; ΔramRΔompK35/36::ompK35 revertant
  MIC: 2 µg/mL
[1]; ΔramRΔompK35/36::ompK36 revertant
  MIC: 0.06 µg/mL
[1]; ΔramRΔompK35/36::ramR revertant
  MIC: 0.5 µg/mL
[1]; ΔramRΔompK35/36::ramR::ompK35/36 revertant
  MIC: 0.125 µg/mL
[1]; ΔramRΔompK35/36::ramR::ompK35 revertant
  MIC: 0.125 µg/mL
[1]; ΔramRΔompK35/36::ramR::ompK36 revertant
  MIC: 0.125 µg/mL
[1]; ΔramRΔompK35/36 mutant
  MIC: 2 µg/mL
[2]; WT, NVT1001, read-out: MIC
  MIC: 0.06 µg/mL (≈ 0.156 µM)
[2]; Δ35, ΔompK35 mutant
  MIC: 0.06 µg/mL (≈ 0.156 µM)
[2]; Δ35/36, ΔompK35/36 mutant
  MIC: 0.5 µg/mL (≈ 1.3 µM)
[2]; Δ36, ΔompK36 mutant
  MIC: 0.06 µg/mL (≈ 0.156 µM)
[2]; ΔramR mutant
  MIC: 0.06 µg/mL (≈ 0.156 µM)
[2]; ΔramRΔ35, ΔramRΔompK35 mutant
  MIC: 0.06 µg/mL (≈ 0.156 µM)
[2]; ΔramRΔ35/36, ΔramRΔompK35/36 mutant
  MIC: 2 µg/mL (≈ 5.22 µM)
[2]; ΔramRΔ36, ΔramRΔompK36 mutant
  MIC: 2 µg/mL (≈ 5.22 µM)
[3]; IMP-8 on pACYC177, WT (NVT1001), read-out: MIC
  MIC: 2 µg/mL
[3]; IMP-8 on pACYC177, Δ35 (ΔompK35 mutant)
  MIC: 1 µg/mL
[3]; IMP-8 on pACYC177, Δ35/36 (ΔompK35/36 mutant)
  MIC: > 32 µg/mL
[3]; IMP-8 on pACYC177, Δ36 (ΔompK36 mutant)
  MIC: 2 µg/mL
[3]; IMP-8 on pACYC177, ΔramR mutant
  MIC: 2 µg/mL
[3]; IMP-8 on pACYC177, ΔramRΔ35 (ΔramRΔompK35 mutant)
  MIC: 2 µg/mL
[3]; IMP-8 on pACYC177, ΔramRΔ35/36 (ΔramRΔompK35/36 mutant)
  MIC: > 32 µg/mL
[3]; IMP-8 on pACYC177, ΔramRΔ36 (ΔramRΔompK36 mutant)
  MIC: > 32 µg/mL
[3]; KPC-2 on pACYC177, WT (NVT1001), read-out: MIC
  MIC: 32 µg/mL
[3]; KPC-2 on pACYC177, Δ35 (ΔompK35 mutant)
  MIC: > 32 µg/mL
[3]; KPC-2 on pACYC177, Δ35/36 (ΔompK35/36 mutant)
  MIC: > 32 µg/mL
[3]; KPC-2 on pACYC177, Δ36 (ΔompK36 mutant)
  MIC: > 32 µg/mL
[3]; KPC-2 on pACYC177, ΔramR mutant
  MIC: 32 µg/mL
[3]; KPC-2 on pACYC177, ΔramRΔ35 (ΔramRΔompK35 mutant)
  MIC: > 32 µg/mL
[3]; KPC-2 on pACYC177, ΔramRΔ35/36 (ΔramRΔompK35/36 mutant)
  MIC: > 32 µg/mL
[3]; KPC-2 on pACYC177, ΔramRΔ36 (ΔramRΔompK36 mutant)
  MIC: > 32 µg/mL
[3]; KPC-3 on pACYC177, WT (NVT1001), read-out: MIC
  MIC: 16 µg/mL
[3]; KPC-3 on pACYC177, Δ35 (ΔompK35 mutant)
  MIC: 32 µg/mL
[3]; KPC-3 on pACYC177, Δ35/36 (ΔompK35/36 mutant)
  MIC: > 32 µg/mL
[3]; KPC-3 on pACYC177, Δ36 (ΔompK36 mutant)
  MIC: > 32 µg/mL
[3]; KPC-3 on pACYC177, ΔramR mutant
  MIC: 32 µg/mL
[3]; KPC-3 on pACYC177, ΔramRΔ35 (ΔramRΔompK35 mutant)
  MIC: > 32 µg/mL
[3]; KPC-3 on pACYC177, ΔramRΔ35/36 (ΔramRΔompK35/36 mutant)
  MIC: > 32 µg/mL
[3]; KPC-3 on pACYC177, ΔramRΔ36 (ΔramRΔompK36 mutant)
  MIC: > 32 µg/mL
[3]; NDM-1 on pACYC177, WT (NVT1001), read-out: MIC
  MIC: 32 µg/mL
[3]; NDM-1 on pACYC177, Δ35 (ΔompK35 mutant)
  MIC: 32 µg/mL
[3]; NDM-1 on pACYC177, Δ35/36 (ΔompK35/36 mutant)
  MIC: > 32 µg/mL
[3]; NDM-1 on pACYC177, Δ36 (ΔompK36 mutant)
  MIC: > 32 µg/mL
[3]; NDM-1 on pACYC177, ΔramR mutant
  MIC: 32 µg/mL
[3]; NDM-1 on pACYC177, ΔramRΔ35 (ΔramRΔompK35 mutant)
  MIC: 32 µg/mL
[3]; NDM-1 on pACYC177, ΔramRΔ35/36 (ΔramRΔompK35/36 mutant)
  MIC: > 32 µg/mL
[3]; NDM-1 on pACYC177, ΔramRΔ36 (ΔramRΔompK36 mutant)
  MIC: > 32 µg/mL
[3]; OXA-48 on pACYC177, WT (NVT1001), read-out: MIC
  MIC: 2 µg/mL
[3]; OXA-48 on pACYC177, Δ35 (ΔompK35 mutant)
  MIC: 2 µg/mL
[3]; OXA-48 on pACYC177, Δ35/36 (ΔompK35/36 mutant)
  MIC: > 32 µg/mL
[3]; OXA-48 on pACYC177, Δ36 (ΔompK36 mutant)
  MIC: 8 µg/mL
[3]; OXA-48 on pACYC177, ΔramR mutant
  MIC: 2 µg/mL
[3]; OXA-48 on pACYC177, ΔramRΔ35 (ΔramRΔompK35 mutant)
  MIC: 2 µg/mL
[3]; OXA-48 on pACYC177, ΔramRΔ35/36 (ΔramRΔompK35/36 mutant)
  MIC: > 32 µg/mL
[3]; OXA-48 on pACYC177, ΔramRΔ36 (ΔramRΔompK36 mutant)
  MIC: > 32 µg/mL
[3]; VIM-1 on pACYC177, WT (NVT1001), read-out: MIC
  MIC: 16 µg/mL
[3]; VIM-1 on pACYC177, Δ35 (ΔompK35 mutant)
  MIC: > 32 µg/mL
[3]; VIM-1 on pACYC177, Δ35/36 (ΔompK35/36 mutant)
  MIC: > 32 µg/mL
[3]; VIM-1 on pACYC177, Δ36 (ΔompK36 mutant)
  MIC: > 32 µg/mL
[3]; VIM-1 on pACYC177, ΔramR mutant
  MIC: > 32 µg/mL
[3]; VIM-1 on pACYC177, ΔramRΔ35 (ΔramRΔompK35 mutant)
  MIC: 32 µg/mL
[3]; VIM-1 on pACYC177, ΔramRΔ35/36 (ΔramRΔompK35/36 mutant)
  MIC: > 32 µg/mL
[3]; VIM-1 on pACYC177, ΔramRΔ36 (ΔramRΔompK36 mutant)
  MIC: > 32 µg/mL
[3]; no supplemental plasmid, WT (NVT1001), read-out: MIC
  MIC: 0.06 µg/mL
[3]; no supplemental plasmid, Δ35 (ΔompK35 mutant)
  MIC: 0.06 µg/mL
[3]; no supplemental plasmid, Δ35/36 (ΔompK35/36 mutant)
  MIC: 0.5 µg/mL
[3]; no supplemental plasmid, Δ36 (ΔompK36 mutant)
  MIC: 0.06 µg/mL
[3]; no supplemental plasmid, ΔramR mutant
  MIC: 0.06 µg/mL
[3]; no supplemental plasmid, ΔramRΔ35 (ΔramRΔompK35 mutant)
  MIC: 0.06 µg/mL
[3]; no supplemental plasmid, ΔramRΔ35/36 (ΔramRΔompK35/36 mutant)
  MIC: 2 µg/mL
[3]; no supplemental plasmid, ΔramRΔ36 (ΔramRΔompK36 mutant)
  MIC: 2 µg/mL
